# What was measured:
# [1] = test system: post-capillary venules (<40 µm); assay: Intravital microscopy study B: macromolecular leak of FITC-BSA; type: in vivo, rat (male Wistar); settings: n=6
# [2] = test system: mesenteric arterioles; assay: Intravital microscopy study B: arteriole diameter; type: in vivo, rat (male Wistar); settings: n=6
# [3] = test system: mean arterial pressure; assay: Mean arterial pressure in anesthetised rats (study B); type: in vivo, rat (male Wistar)
# [4] = test system: mesenteric venules; assay: Intravital microscopy study B: venule diameter; type: in vivo, rat (male Wistar)
# [5] = test system: heart rate; assay: Heart rate in anesthetised rats (study B); type: in vivo, rat (male Wistar)
# [6] = test system: leukocyte rolling in post-capillary venules (<40 µm); assay: Intravital microscopy study B: leukocyte rolling; type: in vivo, rat (male Wistar); settings: n=6
# [7] = test system: heart rate, renal sympathetic nerve activity, MAP; settings: 300 pmol UFP-101 into PVN, conscious Sprague-Dawley rats; cited from earlier work
# Description: (§1) Further studies likewise reported no differences in MAP between NOP^-/- and wild-type mice. However, our findings of tachycardia are in contrast to Burmeister & Kapusta. […] In ...
# [8] = test system: MAP; settings: UFP-101 i.c.v.; cited from earlier work
# Description: as §1
# [9] = test system: plasma TNF-α and IL-1β; settings: 0.03 mg kg^-1 UFP-101; cited from earlier work
# Description: (§2) Only one study has previously utilised the selective NOP antagonist [Nphe^1, Arg^14,Lys^15]
# [10] = test system: hypothalamic pituitary adrenal stress response; settings: UFP-101 i.c.v.; cited from earlier work
# Description: as §2
# [11] = test system: cecal ligation and puncture (CLP) model of sepsis; settings: 0.03 mg kg^-1, rats; improved from approximately 30%; cited from earlier work
# Description: as §2
# [12] = test system: rat mesenteric microcirculation; settings: unpublished data within previous studies; cited from earlier work
# Description: Despite this, as part unpublished data within previous studies we also observed vasoconstriction with UFP-101 [9]. Compared to larger blood vessels the mesenteric microcirculation as studied here (<40 µm) receives little neural control. Thu ...
# [13] = test system: NOP receptors on rat mesenteric microvascular endothelium; assay: Intravital microscopy study A: FITC-N/OFQ binding in mesenteric microcirculation; type: in vivo, rat (male Wistar); settings: n=5
molecule,measurement,setting,value
lipopolysaccharide [LPS],"Macromolecular leak, T40, LPS","[1]; LPS i.v. -24 h and -2 h, % change in interstitial FITC-BSA fluorescence from baseline, median (IQR), control 5.3 (-5.9 to 11.8), p=0.008",95.3%
same,Arteriole diameter change with LPS,"[2]; LPS i.v. -24 h and -2 h, p=0.057",diameter changes in arterioles were not significant
same,"Mean arterial pressure, T40","[3]; LPS i.v. -24 h 1 mg kg^-1, -2 h 0.5 mg kg^-1, median (interquartile range), n=6, control 105 (95 to 110), p=0.429",85 mmHg
same,"Venule diameter, T40, LPS","[4]; LPS i.v. -24 h and -2 h, median (IQR), n=6, control 19.1 (17.8 to 20.8), p=0.002",29.1 µm
same,"Heart rate change with LPS, T40","[5]; LPS i.v. -24 h 1 mg kg^-1, -2 h 0.5 mg kg^-1, n=6, p=0.004",significant increase in heart rate
same,"Leukocyte rolling, T40, LPS","[6]; LPS i.v. -24 h and -2 h, median (IQR), control 3.0 (0.8 to 3.8), p=0.003",7.0 per min
"[Nphe^1, Arg^14,Lys^15] N/OFQ-NH2 [UFP-101]",Heart rate and renal sympathetic nerve activity,[7],increased heart rate and renal sympathetic nerve activity
same,MAP after PVN injection,[7],non-significant increase in MAP
same,"Effect on MAP, i.c.v. mice",[8],no effect on MAP
same,Plasma TNF-α and IL-1β in CLP,[9],reduced plasma concentrations of TNF-α and IL-1β
same,HPA stress response to LPS,[10],reduced the hypothalamic pituitary adrenal stress response to LPS
same,"Survival in CLP, UFP-101",[11],~65%
same,"Macromolecular leak, T40, LPS + UFP-101","[1]; 150nmol.kg^-1 UFP-101 i.v. in LPS rats, median (IQR), not significantly different from controls (p=0.063)",-34.9%
same,"Effect on macromolecular leak, no LPS","[1]; UFP-101 150 nmol kg^-1 i.v. alone, p=0.151",no effect
same,"Arteriole diameter, T40, UFP-101","[2]; UFP-101 150 nM kg^-1 i.v. alone (no LPS), median (IQR), control 16.2 (10.9 to 17.7), p=0.004, difference also present initially",7.1 µm
same,Effect on MAP,"[3]; UFP-101 150 nM kg^-1 i.v. alone (no LPS), n=6",no significant effect on MAP
same,Effect on LPS-induced hypotension,"[3]; UFP-101 i.v., LPS rats",no reversal of the tachycardia or mild hypotension induced by LPS
same,"Venule diameter, UFP-101","[4]; UFP-101 150 nM kg^-1 i.v. alone (no LPS), T40, median (IQR), n=6, control 19.1 (17.8 to 20.8), p=0.001, difference also present initially",9.7 µm
same,Effect on LPS-induced venule vasodilation,"[4]; UFP-101 150 nM kg^-1 i.v., LPS rats",reduced vasodilation of venules in response to LPS
same,Vessel constriction,[12],vasoconstriction
same,"Heart rate, T40","[5]; UFP-101 150 nM kg^-1 i.v. alone (no LPS), median (IQR), n=6, control 330 (308 to 330), p=0.04",375 bpm
same,Effect on LPS-induced heart rate increase,"[5]; UFP-101 150 nM kg^-1 i.v. in LPS rats, T40, n=6, p=0.004",not altered by the addition of UFP-101
same,Effect on LPS-induced tachycardia,"[5]; UFP-101 i.v., LPS rats",no reversal of the tachycardia
same,"Leukocyte rolling, T40, LPS + UFP-101","[6]; 150nmol.kg^-1 UFP-101 i.v. in LPS rats, median (IQR), not significantly different from controls (p=0.117)",0 per min
same,"Effect on leukocyte rolling, no LPS","[6]; UFP-101 150 nmol kg^-1 i.v. alone, p=0.394",no effect
"CC(C)C[C@H](NC(=O)[C@H](CCCCN)NC(=O)[C@H](CCCNC(=N)N)NC(=O)[C@H](C)NC(=O)[C@H](CO)NC(=O)[C@H](CCCCN)NC(=O)[C@H](CCCNC(=N)N)NC(=O)[C@H](C)NC(=O)CNC(=O)[C@@H](NC(=O)[C@H](Cc1ccccc1)NC(=O)CNC(=O)CNC(=O)[C@@H](N)Cc1ccccc1)[C@@H](C)O)C(=O)N[C@@H](C)C(=O)N[C@@H](CC(N)=O)C(=O)N[C@@H](CCC(N)=O)C(=O)N[C@@H](CCCCNC(=S)Nc1ccc2c(c1)C(=O)OC21c2ccc(O)cc2Oc2cc(O)ccc21)C(N)=O [FITC-N/OFQ, [Lys(FITC)^18]N/OFQ-NH2]",Binding to mesenteric microvascular endothelium,"[13]; 200 nM kg^-1 FITC-N/OFQ into mesenteric artery, control rats",bound to specific sites on the endothelium of arterioles
same,Time course of decay of FITC fluorescence with vs without N/OFQ,"[13]; gray level over 60 s, 200 nM kg^-1 FITC-N/OFQ with (T-15) and without (T0) 200 nM.kg^-1 N/OFQ",The time courses were significantly different

# From article PMC3781147 (PLoS ONE, 2013)
